Measured values as given in patent publication US20090304687A1, “METHODS OF USING CD40 BINDING AGENTS” (Seattle Genetics , Inc., priority 2005, published 2009).
Positions count from the first letter of the chain named. Names and notes keep the numbering of the source. Values joined by “and” are separate entries in the source; they are usually repeats but may differ in a detail not shown here. Equal entries are not always repeated. Where two headings read alike, the source gives them in different places. Each block holds one molecule with its values, some of them ahead of it.

Experiments:
[1] = test system: Ramos cells; experiment: In vitro drug combinations with SGN-40, 3H-thymidine proliferation, Combination Index; type: cell-based; conditions: for Combination Index at ED50 / Combination Index at ED75 / Combination Index at ED90: drug with cross-linked SGN-40 (30.0-0.0586 ng/ml), Ramos cells 2% FBS, 72 hours
Description: Cells were treated for 72 hours, then labeled with ^3H-thymidine for 4 hours to measure proliferation rates. Dose response curves of drugs alone and in combination with the humanized CD40 antibody were reduced in Excel, and Combination Indices (CI) determined using the Calcusyn analysis package (Biosoft). […] CI values equal to 1.0 indicate an additive integration. For these studies, n=3 unless otherwise indicated.

[2] = target: CD40 immobilized on microassay plates (UniProt P25942 21-193, limits assumed); experiment: serially diluted antibody on CD40 immobilized on microassay plates
Description: (§1) Antibodies constructed using these variant light and heavy chain variable domains were analyzed for binding activity. Each antibody was diluted to equivalent concentrations, and then serially diluted. The diluted antibodies were assayed for binding to CD40 immobilized on microassay plates.

[3] = target: CD40 (Homo sapiens, UniProt P25942); experiment: Binding of variant antibodies to CD40 immobilized on microassay plates; parameters: Binding Data 1 / Binding Data 2 / Binding Data 3: unit not given here
Description: as §1, with “plates. Affinity binding data for the variant antibodies are shown below in Table 3.” for “plates.”

[4] = drug with cross-linked SGN-40, Ramos cells
[5] = affinity binding data, serially diluted antibody on immobilized CD40

Sequence of CD40 immobilized on microassay plates (P25942 21-193 limits assumed): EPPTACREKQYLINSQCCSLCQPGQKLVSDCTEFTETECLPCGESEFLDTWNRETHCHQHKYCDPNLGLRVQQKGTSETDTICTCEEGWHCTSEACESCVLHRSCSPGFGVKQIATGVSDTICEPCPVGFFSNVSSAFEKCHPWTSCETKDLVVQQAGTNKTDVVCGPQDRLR
Sequence of CD40 (P25942 21-277): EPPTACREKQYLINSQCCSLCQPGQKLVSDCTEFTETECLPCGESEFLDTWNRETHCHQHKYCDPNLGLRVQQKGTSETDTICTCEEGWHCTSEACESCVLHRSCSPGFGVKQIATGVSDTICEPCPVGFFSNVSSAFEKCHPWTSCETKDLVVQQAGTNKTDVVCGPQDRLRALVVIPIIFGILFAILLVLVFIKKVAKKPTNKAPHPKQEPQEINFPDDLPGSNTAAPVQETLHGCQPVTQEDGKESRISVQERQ

Molecule: O=C1c2c(O)ccc(O)c2C(=O)c2c(NCCNCCO)ccc(NCCNCCO)c21 [Mitoxantrone]
Effect (of combination with SGN-40) [1, 4]: Syn. → Add.
Effect (of combination with SGN-40) ([1]; drug with cross-linked SGN-40, Ramos cells, listed as mitoxantrone): additive

Molecule: TNFα
Combination Index at ED50 [1]: 0.70
Combination Index at ED75 [1]: 0.61
Combination Index at ED90 [1]: 0.60
Effect (of combination with SGN-40) [1, 4]: Synergistic

Molecule: Bleomycin
Effect (of combination with SGN-40) [1]: Synergistic

Molecule: N[C@@H](Cc1ccc(N(CCCl)CCCl)cc1)C(=O)O [Melphalan]
Effect (of combination with SGN-40) [1, 4]: Additive
Effect (of combination with SGN-40) ([1]; drug with cross-linked SGN-40, Ramos cells, listed as melphalan): additive

Molecule: N.N.[Cl][Pt][Cl] [Cisplatin]
Combination Index at ED50 [1]: 1.04
Combination Index at ED75 [1]: 0.89
Combination Index at ED90 [1]: 0.78
Effect (of combination with SGN-40) [1, 4]: Additive → Syn.
Effect (of combination with SGN-40) ([1]; drug with cross-linked SGN-40, Ramos cells, listed as cisplatin): additive

Molecule: Nc1ccn([C@@H]2O[C@H](CO)[C@@H](O)[C@@H]2O)c(=O)n1 [Ara-C]
Combination Index at ED50 [1]: 0.95
Combination Index at ED75 [1]: 0.90
Combination Index at ED90 [1]: 0.90
Effect (of combination with SGN-40) [1, 4]: Additive

Molecule: COc1cc([C@@H]2c3cc4c(cc3[C@@H](O[C@@H]3O[C@@H]5CO[C@@H](C)O[C@H]5[C@H](O)[C@H]3O)[C@H]3COC(=O)[C@H]23)OCO4)cc(OC)c1O [Etoposide]
Effect (of combination with SGN-40) [1, 4]: Antagonistic. → Add.

Binding Data 1 [2]: 23.6
Binding Data 2 [2]: 19.3
B1: hu sgn-1 (antibody, V domains shown)
VH: EVQLVESGGGLVQPGGSLRLSCAASGYSFTGYYIHWVRQAPGKGLEWVARVIPNNGGTSYNQKFKGRFTISVDNSKNTLYLQMNSLRAEDTAVYYCAREGIYWWGQGTLVTVS
VL: DIQMTQSPSSLSASVGDRVTITCRSSQSLVHSNGNTFLHWYQQKPGKAPKLLIYTVSNRFSGVPSRFSGSGSGTDFTLTISSLQPEDFATYYCSQTTHVPWTFGQGTKVEIKR

B2: hu sgn-19: humanized CD40 antibody variant, heavy SEQ ID NO: 7, light SEQ ID NO: 16 (Y92F) (antibody, V domains shown)
VH: B1 VH with I70L, L79A
VL: B1 VL with Y92F
binding activity compared with the parent murine antibody ([3]; in words): approaching that of the parent murine antibody

Binding Data 1 [3, 5]: 1/11 and 0.86 and 0.77
Binding Data 2 [3, 5]: 0.69 and 0.77
B3: hu sgn-14: humanized CD40 antibody variant, heavy SEQ ID NO: 7 (I70L R72V L79A), light SEQ ID NO: 14 (antibody, V domains shown)
VH: B1 VH with I70L, L79A
VL: B1 VL

Binding Data 1 [2]: 471
Binding Data 2 [2]: 371
B4: hu sgn-2 (antibody, V domains shown)
VH: B1 VH with V72R, N74K
VL: B1 VL

Binding Data 2 [2]: 3.56
B5: hu sgn-17 (antibody, V domains shown)
VH: B1 VH with F68A, I70L, L79A
VL: B1 VL with I2V, M4V

Binding Data 2 [2]: 2.46
B6: hu sgn-4 (antibody, V domains shown)
VH: B1 VH with F68A, I70L, L79A
VL: B1 VL

Binding Data 2 [2]: 2.71
B7: hu sgn-15 (antibody, V domains shown)
VH: B1 VH with F68A, L79A
VL: B1 VL

Binding Data 1 [2]: 1
Binding Data 2 [2]: 1.33
B8: SGN-14 (parent murine antibody, donor) (antibody, V domains shown)
VH: EVQLQQSGPDLVKPGASVKISCKASGYSFTGYYIHWVKQSHGKSLEWIGRVIPNNGGTSYNQKFKGKAILTVDKSSSTAYMELRSLTSEDSAVYYCAREGIYWWGHGTTLTVS
VL: DVVVTQTPLSLPVSLGAQASISCRSSQSLVHSNGNTFLHWYLQKPGQSPKLLIYTVSNRFSGVPDRFSGSGSGTDFTLKISRVEAEDLGVYFCSQTTHVPWTFGGGTKLEIQR
notes: Murine monoclonal antibody; also called S2C6; murine CD40 donor antibody
